# In ChEMBL document CHEMBL1671860, “Role of Cj1211 in natural transformation and transfer of antibiotic resistance determinants in Campylobacter jejuni” (2008):
# Activity calls are given as the source filed them. The rule behind the calls is not given here.
# Columns and labels:
# Campylobacter jejuni [1] = experiment: Antibacterial activity against Cj1211-negative Campylobacter jejuni harboring aphA3 and tet(O) genes; assay type: functional
# Campylobacter jejuni [2] = experiment: Antibacterial activity against Cj1211-positive Campylobacter jejuni harboring aphA3 and tet(O) genes; assay type: functional
# Campylobacter jejuni [3] = experiment: Antibacterial activity against Campylobacter jejuni JB201 infected in chicken assessed as decrease in bacterial colonization at 50 mg/L; assay type: functional, organism-based
# Campylobacter = experiment: Antibacterial activity against Campylobacter by Etest; assay type: functional
Structure (SMILES),MIC (Campylobacter jejuni [1]),MIC (Campylobacter jejuni [2]),Activity (Campylobacter jejuni [3]),MIC (Campylobacter)
CN(C)[C@@H]1C(O)=C(C(N)=O)C(=O)[C@@]2(O)C(O)=C3C(=O)c4c(O)cccc4[C@@](C)(O)[C@H]3C[C@@H]12 [TETRACYCLINE],16 µg/mL,16 µg/mL,–,–
CCN1CCN(c2cc3c(cc2F)c(=O)c(C(=O)O)cn3C2CC2)CC1,–,–,Active,–
NC[C@H]1O[C@H](O[C@H]2[C@H](O)[C@@H](O[C@H]3O[C@H](CO)[C@@H](O)[C@H](N)[C@H]3O)[C@H](N)C[C@@H]2N)[C@H](O)[C@@H](O)[C@@H]1O [KANAMYCIN],> 256 µg/mL,> 256 µg/mL,–,–
O=C(O)c1cn(C2CC2)c2cc(N3CCNCC3)c(F)cc2c1=O [CIPROFLOXACIN],–,–,–,> 32 µg/mL
